According to PMC8861115, “Characterization and structural analyses of a novel glycosyltransferase acting on the β-1,2-glucosidic linkages” (The Journal of Biological Chemistry, 2022):
Positions count from the first letter of the chain named.

Assays:
[1] = biological target: T1, IaSGT (IALB_1185) (Ignavibacterium album, UniProt I0AIT9, E343G); test: X-ray crystal structure of complex; type: binding; settings: subsites -1 and +1, subunit A only
T1 construct: full length (no N-terminal signal peptide), his6-tag fusion from pET30a(+) NdeI/XhoI, E. coli BL21(DE3); homodimer
T1 sequence (I0AIT9 1-716 E343G): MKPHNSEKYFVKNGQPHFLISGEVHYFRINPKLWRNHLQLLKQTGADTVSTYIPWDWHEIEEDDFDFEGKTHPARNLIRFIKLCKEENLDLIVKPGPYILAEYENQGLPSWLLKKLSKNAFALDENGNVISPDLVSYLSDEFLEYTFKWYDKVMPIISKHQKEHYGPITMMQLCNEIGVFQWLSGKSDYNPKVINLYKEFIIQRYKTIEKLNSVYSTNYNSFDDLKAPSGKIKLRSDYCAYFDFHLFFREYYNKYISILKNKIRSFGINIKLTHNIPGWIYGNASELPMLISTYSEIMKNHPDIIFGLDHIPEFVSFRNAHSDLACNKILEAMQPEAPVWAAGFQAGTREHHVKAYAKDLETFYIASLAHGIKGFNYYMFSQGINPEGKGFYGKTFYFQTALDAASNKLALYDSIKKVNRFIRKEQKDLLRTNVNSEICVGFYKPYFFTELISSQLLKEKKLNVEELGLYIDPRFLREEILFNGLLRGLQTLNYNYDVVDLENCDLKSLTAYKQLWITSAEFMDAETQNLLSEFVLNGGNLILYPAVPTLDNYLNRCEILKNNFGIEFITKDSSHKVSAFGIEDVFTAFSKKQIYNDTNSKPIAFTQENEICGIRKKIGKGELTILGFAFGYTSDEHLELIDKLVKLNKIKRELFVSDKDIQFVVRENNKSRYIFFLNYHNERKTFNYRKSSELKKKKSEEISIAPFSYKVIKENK

[2] = biological target: T2, IaSGT (IALB_1185) (Ignavibacterium album, UniProt I0AIT9); test: hexokinase/G6PDH thio-NAD+ coupled glucose release; type: biochemical; settings: acceptor; donor Sop2 fixed 1 mM; pH 5.0, 37 °C
T2 construct: full length (no N-terminal signal peptide), his6-tag fusion from pET30a(+) NdeI/XhoI, E. coli BL21(DE3); homodimer
T2 sequence (I0AIT9 1-716): T1 sequence (I0AIT9 1-716 E343G) with G343E
Excerpt: hexokinase/G6PDH thio-NAD+ coupled glucose release on IaSGT (IALB_1185)

Row | Compound | X-ray crystal structure of complex [1] | Km [2]
1 | OC[C@H]1NC[C@H](O)[C@@H](O)[C@@H]1O [DNJ, 1-deoxynojirimycin] | The electron densities of DNJ molecules were observed only in subunit A in the E343G mutant | 
2 | N#C[C@H](O[C@@H]1O[C@H](CO[C@@H]2O[C@H](CO)[C@@H](O)[C@H](O)[C@H]2O)[C@@H](O)[C@H](O)[C@H]1O)c1ccccc1 [Amygdalin] |  | 150 ± 20 µM
